Experimental data published in patent publication US6417384B1, “Radioiodinated phospholipid ether analogs and methods of using the same” (The Regents of the University of Michigan, priority 1999, dated 2002).
Blank lines part the entries; values can stand above or below the compound they belong to.

Assays:
[1] = test system: rats bearing Walker-256 tumor; experiment: Biodistribution studies with Walker-256 carcinosarcoma; type: in vivo, rat
Description: The three radiolabelled compounds illustrated in FIG. 5, including the improved C-18 analog 18-(p-iodophenyl)octadecyl phosphocholine (Compound XVI) described in Example 2, were prepared and administered to two sets of female Sprague Dawley rats (Charles River, Portage, Mich.). One normal set was used as a control, and one set was inoculated with Walker-256 carcinosarcoma cells (5×10^6 cells) in 0.2 ml saline in the right hindlimb. The Walker carcinoma cell line was provided by Dr. James Varani of the Department of Pathology at the University of Michigan, and is an accepted cell line representative of effect in humans. See, e.g. Tayck et al., “Influence of the Walker 256 Carcinosarcoma on Muscle, Tumor, and Whole-Body Protein Synthesis and Growth Rate in the Cancer-Bearing Rat, Cancer Res. 46:5649-54 (1986).
The animals were used 6-8 days later when the tumor weight averaged 10 g. The radiolabelled compounds were dissolved in absolute ethanol (50-500 μl) and Tween-20 (0.1 ml/mg of compound) was added to the solution. Ethanol was removed by evaporation under a stream of nitrogen. Physiological saline or sterile water was added, to give a 2-3% Tween-20 solution which was subsequently mixed by vortex. The solubilized radiolabelled compounds (5-10 μCi, 0.3 ml) were administered intravenously via the tail vein to tumor bearing rats, and the animals were sacrificed by exsanguination while under ether anesthesia at the various time points. Blood samples were collected through cardiac puncture and selected tissues (liver, kidney, etc.) were removed, trimmed, blotted to remove excess blood and weighed. Large organs were thoroughly minced with scissors to obtain random representative tissue samples.
For the biodistribution experiments with 12-(p-iodophenyl)dodecyl phosphocholine, weighed tissue samples were counted with a well scintillation counter (85% counting efficiency). The concentration of radioactivity in each tissue was expressed as a percentage of administered dose per gram of tissue.
Tissue distribution was assessed at various times following administration of the radioiodinated chain length isomers. The results are expressed as the mean % administered dose per gram±SEM (% Dose/g±SEM).

[2] = test system: rats bearing Dunning (MATLyLu) prostate tumors; experiment: Biodistribution studies with Dunning prostate tumor; type: in vivo, rat; settings: for mean % administered dose per gram, Adrenal / mean % administered dose per gram, Blood / mean % administered dose per gram, Kidney / mean % administered dose per gram, Liver / mean % administered dose per gram, Lung / mean % administered dose per gram, Plasma / mean % administered dose per gram, Tumor: i.v., Dunning MAT-LyLu prostate tumor-bearing rats, mean ± SEM
Description: The three radiolabelled compounds illustrated in FIGS. 7A-7C, including the improved C-18 analogs 18-(p-iodophenyl)octadecyl phosphocholine (Compound XVI—FIG. 7B) and 1-O-[18-(p-iodophenyl)octadecyl]-1,3-propanediol-3-phosphocholine (Compound XIV—FIG. 7C) described in Examples 2 and 3, respectively, were prepared and administered to two sets of male Copenhagen rats (Harlan Sprague-Dawley, Indianapolis, Ind.). One group of normal animals was used as a control, and another group was inoculated with Dunning prostate tumor cells (1×10^6 MAT-LyLu cells) in 0.2 ml saline in the right hindlimb. The MAT-LyLu subline of the Dunning (R-3327) adenocarcinoma prostate tumor was provided by Dr. Ken Pienta of the Department of Urology at the University of Michigan, and is an accepted cell line representative of effect in humans. See, e.g., Pienta et al., “Inhibition of Spontaneous Metastasis in a Rat Prostrate Cancer Model by Oral Administration of Modified Citrus Pectin, J. Natl. Cancer Inst. 87:348-53 (1995).
The animals were maintained with free access to food and water until day 8-10. The radioiodinated phospholipid ether analog formulated in 2% Tween 20—sterile water (5-10 μCi, 0.3-0.4 ml, described above in Example 6) was administered intravenously into the tail vein of the tumor-bearing animals under metofane anesthesia. The animals were euthanized at selected time points after injection (n=3 per time point) and samples of blood, plasma and a variety of tissues including tumor and prostate are collected and analyzed for radioiodine content. Biodistribution values are calculated as the mean of the individual % administered dose per gram of tissue and % dose per organ values.

[3] = female, Sprague Dawley, rat, in vivo, iv, 24 h
[4] = female, Sprague Dawley, rat, in vivo, iv, 48 h

SMILES: C[N+](C)(C)CCOP(=O)([O-])OCCCCCCCCCCCCCCCc1ccc(I)cc1 [C-15 Analog, 15-(p-iodophenyl)pentadecyl phosphocholine]
mean % administered dose per gram, Adrenal ([1]; Adrenal, 24 hr, i.v., Walker-256 tumor-bearing rats, mean ± SEM): 0.73 ± 0.08 % Dose/g
mean % administered dose per gram, Adrenal ([1]; Adrenal, 48 hr, i.v., Walker-256 tumor-bearing rats, mean ± SEM): 0.49 ± 0.05 % Dose/g
mean % administered dose per gram, Blood ([1]; Blood, 24 hr, i.v., Walker-256 tumor-bearing rats, mean ± SEM): 0.16 ± 0.01 % Dose/g
mean % administered dose per gram, Blood ([1]; Blood, 48 hr, i.v., Walker-256 tumor-bearing rats, mean ± SEM): 0.14 ± 0.01 % Dose/g
blood levels ([1]; Blood, 120 hours, i.v., Walker-256 tumor-bearing rats, mean ± SEM): 0.07±0.01 % Dose/g
mean % administered dose per gram, Duodenum ([1]; Duodenum, 24 hr, i.v., Walker-256 tumor-bearing rats, mean ± SEM): 1.13 ± 0.13 % Dose/g
mean % administered dose per gram, Duodenum ([1]; Duodenum, 48 hr, i.v., Walker-256 tumor-bearing rats, mean ± SEM): 1.38 ± 0.24 % Dose/g
mean % administered dose per gram, Kidney ([1]; Kidney, 24 hr, i.v., Walker-256 tumor-bearing rats, mean ± SEM): 1.14 ± 0.11 % Dose/g
mean % administered dose per gram, Kidney ([1]; Kidney, 48 hr, i.v., Walker-256 tumor-bearing rats, mean ± SEM): 0.91 ± 0.04 % Dose/g
mean % administered dose per gram, Liver ([1]; Liver, 24 hr, i.v., Walker-256 tumor-bearing rats, mean ± SEM): 1.29 ± 0.10 % Dose/g
mean % administered dose per gram, Liver ([1]; Liver, 48 hr, i.v., Walker-256 tumor-bearing rats, mean ± SEM): 0.83 ± 0.04 % Dose/g
mean % administered dose per gram, Lung ([1]; Lung, 24 hr, i.v., Walker-256 tumor-bearing rats, mean ± SEM): 0.97 ± 0.03 % Dose/g
mean % administered dose per gram, Lung ([1]; Lung, 48 hr, i.v., Walker-256 tumor-bearing rats, mean ± SEM): 0.81 ± 0.04 % Dose/g
mean % administered dose per gram, Plasma ([1]; Plasma, 24 hr, i.v., Walker-256 tumor-bearing rats, mean ± SEM): 0.16 ± 0.01 % Dose/g
mean % administered dose per gram, Plasma ([1]; Plasma, 48 hr, i.v., Walker-256 tumor-bearing rats, mean ± SEM): 0.15 ± 0.03 % Dose/g
mean % administered dose per gram, Tumor ([1]; Tumor, 24 hr, i.v., Walker-256 tumor-bearing rats, mean ± SEM): 1.47 ± 0.10 % Dose/g
mean % administered dose per gram, Tumor ([1]; Tumor, 48 hr, i.v., Walker-256 tumor-bearing rats, mean ± SEM): 1.65 ± 0.23 % Dose/g

mean % administered dose per gram, Adrenal ([2]; 24 hr): 1.37 ± 0.03 % Dose/g
mean % administered dose per gram, Adrenal ([2]; 48 hr): 1.04 ± 0.07 % Dose/g
mean % administered dose per gram, Blood ([2]; 24 hr): 0.41 ± 0.01 % Dose/g
mean % administered dose per gram, Blood ([2]; 48 hr): 0.29 ± 0.01 % Dose/g
mean % administered dose per gram, Kidney ([2]; 24 hr): 0.73 ± 0.02 % Dose/g
mean % administered dose per gram, Kidney ([2]; 48 hr): 0.65 ± 0.01 % Dose/g
mean % administered dose per gram, Liver ([2]; 24 hr): 0.57 ± 0.02 % Dose/g
mean % administered dose per gram, Liver ([2]; 48 hr): 0.36 ± 0.01 % Dose/g
mean % administered dose per gram, Lung ([2]; 24 hr): 0.89 ± 0.07 % Dose/g
mean % administered dose per gram, Lung ([2]; 48 hr): 0.78 ± 0.02 % Dose/g
mean % administered dose per gram, Plasma ([2]; 24 hr): 0.58 ± 0.01 % Dose/g
mean % administered dose per gram, Plasma ([2]; 48 hr): 0.42 ± 0.03 % Dose/g
mean % administered dose per gram, Tumor ([2]; 24 hr): 0.43 ± 0.05 % Dose/g
mean % administered dose per gram, Tumor ([2]; 48 hr): 0.39 ± 0.01 % Dose/g
SMILES: C[N+](C)(C)CCOP(=O)([O-])OCCCOCCCCCCCCCCCCCCCCCCc1ccc(I)cc1 [Compound XIV, 1-O-[18-(p-Iodophenyl)octadecyl]-1,3-propanediol-3-phosphocholine]

mean % administered dose per gram, Adrenal ([2]; 24 hr): 0.88 ± 0.02 % Dose/g
mean % administered dose per gram, Adrenal ([2]; 48 hr): 0.76 ± 0.03 % Dose/g
mean % administered dose per gram, Blood ([2]; 24 hr): 0.88 ± 0.04 % Dose/g
mean % administered dose per gram, Blood ([2]; 48 hr): 0.64 ± 0.05 % Dose/g
mean % administered dose per gram, Kidney ([2]; 24 hr): 0.59 ± 0.02 % Dose/g
mean % administered dose per gram, Kidney ([2]; 48 hr): 0.51 ± 0.03 % Dose/g
mean % administered dose per gram, Liver ([2]; 24 hr): 0.57 ± 0.02 % Dose/g
mean % administered dose per gram, Liver ([2]; 48 hr): 0.40 ± 0.03 % Dose/g
mean % administered dose per gram, Lung ([2]; 24 hr): 0.84 ± 0.01 % Dose/g
mean % administered dose per gram, Lung ([2]; 48 hr): 0.69 ± 0.05 % Dose/g
mean % administered dose per gram, Plasma ([2]; 24 hr): 1.43 ± 0.06 % Dose/g
mean % administered dose per gram, Plasma ([2]; 48 hr): 0.99 ± 0.11 % Dose/g
mean % administered dose per gram, Tumor ([2]; 24 hr): 0.75 ± 0.04 % Dose/g
mean % administered dose per gram, Tumor ([2]; 48 hr): 0.81 ± 0.04 % Dose/g
tumor levels relative to the shorter chain analog ([2]; versus C-12 analog, Dunning prostate tumor model): more than twice as high
SMILES: C[N+](C)(C)CCOP(=O)([O-])OCCCCCCCCCCCCCCCCCCc1ccc(I)cc1 [Compound XVI, 18-(p-iodophenyl)octadecyl phosphocholine]
mean % administered dose per gram, Adrenal [1, 3]: 0.85 ± 0.04 % Dose/g
mean % administered dose per gram, Blood [1, 3]: 0.96 ± 0.00 % Dose/g
mean % administered dose per gram, Duodenum [1, 3]: 0.69 ± 0.05 % Dose/g
mean % administered dose per gram, Kidney [1, 3]: 0.65 ± 0.00 % Dose/g
mean % administered dose per gram, Liver [1, 3]: 0.55 ± 0.04 % Dose/g
mean % administered dose per gram, Lung [1, 3]: 0.88 ± 0.06 % Dose/g
mean % administered dose per gram, Plasma [1, 3]: 1.47 ± 0.03 % Dose/g
mean % administered dose per gram, Tumor [1, 3]: 0.98 ± 0.07 % Dose/g
mean % administered dose per gram, Adrenal [1, 4]: 0.92 ± 0.06 % Dose/g
mean % administered dose per gram, Blood [1, 4]: 0.64 ± 0.07 % Dose/g
mean % administered dose per gram, Duodenum [1, 4]: 0.68 ± 0.04 % Dose/g
mean % administered dose per gram, Kidney [1, 4]: 0.59 ± 0.04 % Dose/g
mean % administered dose per gram, Liver [1, 4]: 0.59 ± 0.05 % Dose/g
mean % administered dose per gram, Lung [1, 4]: 0.76 ± 0.07 % Dose/g
mean % administered dose per gram, Plasma [1, 4]: 0.95 ± 0.11 % Dose/g
mean % administered dose per gram, Tumor [1, 4]: 1.14 ± 0.01 % Dose/g
blood levels ([1]; female, Sprague Dawley, rat, in vivo, iv, 120 h): 0.60±0.01 % Dose/g
clearance from non-target tissues ([1]; rat, in vivo): much more rapid than from tumor
level in the tumor over a longer time period ([1]; rat, in vivo): increased significantly
retention in the circulation ([1]; rat, in vivo): retained in the circulation to a much greater extent than the other chain length isomers surveyed
